Reference: ChEMBL document CHEMBL4665869, “New thiazolopyrimidine as anticancer agents: Synthesis, biological evaluation, DNA binding, molecular modeling and ADMET study” (Bioorg Med Chem Lett, 2020)
In brackets after ≈: the same amount, converted by molar mass.

Assays:
LOX IMVI = experiment: Growth inhibition of human LOX IMVI cells at 10 uM relative to control; assay type: functional; conditions: read-out: GI
MDA-MB-468 = experiment: Growth inhibition of human MDA-MB-468 cells at 10 uM relative to control; assay type: functional; conditions: read-out: GI
T47D = experiment: Growth inhibition of human T47D cells at 10 uM relative to control; assay type: functional; conditions: read-out: GI
CCRF-CEM = experiment: Growth inhibition of human CCRF-CEM cells at 10 uM relative to control; assay type: functional; conditions: read-out: GI
HL-60(TB) = experiment: Growth inhibition of human HL-60(TB) cells at 10 uM relative to control; assay type: functional; conditions: read-out: GI
K562 = experiment: Growth inhibition of human K562 cells at 10 uM relative to control; assay type: functional; conditions: read-out: GI
MOLT-4 = experiment: Growth inhibition of human MOLT-4 cells at 10 uM relative to control; assay type: functional; conditions: read-out: GI
RPMI-8226 = experiment: Growth inhibition of human RPMI-8226 cells at 10 uM relative to control; assay type: functional; conditions: read-out: GI
SR = experiment: Growth inhibition of human SR cells at 10 uM relative to control; assay type: functional; conditions: read-out: GI
A549 = experiment: Growth inhibition of human A549 cells at 10 uM relative to control; assay type: functional; conditions: read-out: GI
HOP-62 = experiment: Growth inhibition of human HOP-62 cells at 10 uM relative to control; assay type: functional; conditions: read-out: GI
HOP-92 = experiment: Growth inhibition of human HOP-92 cells at 10 uM relative to control; assay type: functional; conditions: read-out: GI
NCI-H226 = experiment: Growth inhibition of human NCI-H226 cells at 10 uM relative to control; assay type: functional; conditions: read-out: GI
NCI-H23 = experiment: Growth inhibition of human NCI-H23 cells at 10 uM relative to control; assay type: functional; conditions: read-out: GI
NCI-H322M = experiment: Growth inhibition of human NCI-H322M cells at 10 uM relative to control; assay type: functional; conditions: read-out: GI
NCI-H460 = experiment: Growth inhibition of human NCI-H460 cells at 10 uM relative to control; assay type: functional; conditions: read-out: GI
NCI-H522 = experiment: Growth inhibition of human NCI-H522 cells at 10 uM relative to control; assay type: functional; conditions: read-out: GI
SW-620 = experiment: Growth inhibition of human SW-620 cells at 10 uM relative to control; assay type: functional; conditions: read-out: GI
COLO 205 = experiment: Growth inhibition of human COLO 205 cells at 10 uM relative to control; assay type: functional; conditions: read-out: GI
HCC 2998 = experiment: Growth inhibition of human HCC 2998 cells at 10 uM relative to control; assay type: functional; conditions: read-out: GI
HCT-116 = experiment: Growth inhibition of human HCT-116 cells at 10 uM relative to control; assay type: functional; conditions: read-out: GI
HCT-15 = experiment: Growth inhibition of human HCT-15 cells at 10 uM relative to control; assay type: functional; conditions: read-out: GI
HT-29 = experiment: Growth inhibition of human HT-29 cells at 10 uM relative to control; assay type: functional; conditions: read-out: GI
KM12 = experiment: Growth inhibition of human KM12 cells at 10 uM relative to control; assay type: functional; conditions: read-out: GI
SF-268 = experiment: Growth inhibition of human SF-268 cells at 10 uM relative to control; assay type: functional; conditions: read-out: GI
SF-295 = experiment: Growth inhibition of human SF-295 cells at 10 uM relative to control; assay type: functional; conditions: read-out: GI
SF-539 = experiment: Growth inhibition of human SF-539 cells at 10 uM relative to control; assay type: functional; conditions: read-out: GI
SNB-19 = experiment: Growth inhibition of human SNB-19 cells at 10 uM relative to control; assay type: functional; conditions: read-out: GI
SNB-75 = experiment: Growth inhibition of human SNB-75 cells at 10 uM relative to control; assay type: functional; conditions: read-out: GI
U-251 = experiment: Growth inhibition of human U-251 cells at 10 uM relative to control; assay type: functional; conditions: read-out: GI
Malme-3M = experiment: Growth inhibition of human Malme-3M cells at 10 uM relative to control; assay type: functional; conditions: read-out: GI
M14 = experiment: Growth inhibition of human M14 cells at 10 uM relative to control; assay type: functional; conditions: read-out: GI
MDA-MB-435 = experiment: Growth inhibition of human MDA-MB-435 cells at 10 uM relative to control; assay type: functional; conditions: read-out: GI
SK-MEL-2 = experiment: Growth inhibition of human SK-MEL-2 cells at 10 uM relative to control; assay type: functional; conditions: read-out: GI
SK-MEL-28 = experiment: Growth inhibition of human SK-MEL-28 cells at 10 uM relative to control; assay type: functional; conditions: read-out: GI
SK-MEL-5 = experiment: Growth inhibition of human SK-MEL-5 cells at 10 uM relative to control; assay type: functional; conditions: read-out: GI
UACC-257 = experiment: Growth inhibition of human UACC-257 cells at 10 uM relative to control; assay type: functional; conditions: read-out: GI
UACC-62 = experiment: Growth inhibition of human UACC-62 cells at 10 uM relative to control; assay type: functional; conditions: read-out: GI
IGROV-1 = experiment: Growth inhibition of human IGROV-1 cells at 10 uM relative to control; assay type: functional; conditions: read-out: GI
OVCAR-4 = experiment: Growth inhibition of human OVCAR-4 cells at 10 uM relative to control; assay type: functional; conditions: read-out: GI
OVCAR-5 = experiment: Growth inhibition of human OVCAR-5 cells at 10 uM relative to control; assay type: functional; conditions: read-out: GI
OVCAR-8 = experiment: Growth inhibition of human OVCAR-8 cells at 10 uM relative to control; assay type: functional; conditions: read-out: GI
NCI/ADR-RES = experiment: Growth inhibition of human NCI/ADR-RES cells at 10 uM relative to control; assay type: functional; conditions: read-out: GI
SK-OV-3 = experiment: Growth inhibition of human SK-OV-3 cells at 10 uM relative to control; assay type: functional; conditions: read-out: GI
786-0 = experiment: Growth inhibition of human 786-0 cells at 10 uM relative to control; assay type: functional; conditions: read-out: GI
A498 = experiment: Growth inhibition of human A498 cells at 10 uM relative to control; assay type: functional; conditions: read-out: GI
ACHN = experiment: Growth inhibition of human ACHN cells at 10 uM relative to control; assay type: functional; conditions: read-out: GI
CAKI-1 = experiment: Growth inhibition of human CAKI-1 cells at 10 uM relative to control; assay type: functional; conditions: read-out: GI
RXF 393 = experiment: Growth inhibition of human RXF 393 cells at 10 uM relative to control; assay type: functional; conditions: read-out: GI
SN12C = experiment: Growth inhibition of human SN12C cells at 10 uM relative to control; assay type: functional; conditions: read-out: GI
TK-10 = experiment: Growth inhibition of human TK-10 cells at 10 uM relative to control; assay type: functional; conditions: read-out: GI
UO-31 = experiment: Growth inhibition of human UO-31 cells at 10 uM relative to control; assay type: functional; conditions: read-out: GI
PC-3 = experiment: Growth inhibition of human PC-3 cells at 10 uM relative to control; assay type: functional; conditions: read-out: GI
DU-145 = experiment: Growth inhibition of human DU-145 cells at 10 uM relative to control; assay type: functional; conditions: read-out: GI
MCF7 = experiment: Growth inhibition of human MCF7 cells at 10 uM relative to control; assay type: functional; conditions: read-out: GI
MDA-MB-231 = experiment: Growth inhibition of human MDA-MB-231 cells at 10 uM relative to control; assay type: functional; conditions: read-out: GI
Hs-578T = experiment: Growth inhibition of human Hs-578T cells at 10 uM relative to control; assay type: functional; conditions: read-out: GI
BT-549 = experiment: Growth inhibition of human BT-549 cells at 10 uM relative to control; assay type: functional; conditions: read-out: GI
DNA = experiment: Displacement of methyl green from DNA (unknown origin) assessed as DNA intercalation after 24 hrs by colorimetric assay; assay type: nucleic-acid assay

Work on `CCOC(=O)C1=CSC2=NC(/C=C/c3cc(OC)c(OC)c(OC)c3)=CC(c3cc(OC)c(OC)c(OC)c3)N12` (centres undefined) yielded an inhibition of growth at 10 µM (LOX IMVI) of 29.7%, an inhibition of growth at 10 µM (MDA-MB-468) of under 10% and an inhibition of growth at 10 µM (T47D) of under 10%. The inhibition of growth at 10 µM (CCRF-CEM) was 69.3%, the inhibition of growth at 10 µM (HL-60(TB)) was under 10% and the inhibition of growth at 10 µM (K562) was 35.7%. For the same molecule, the inhibition of growth at 10 µM (MOLT-4) was 25.1%, the inhibition of growth at 10 µM (RPMI-8226) was 18% and the inhibition of growth at 10 µM (SR) was 59%. The inhibition of growth at 10 µM (A549) was under 10%, the inhibition of growth at 10 µM (HOP-62) was under 10% and the inhibition of growth at 10 µM (HOP-92) was under 10%. It also gave an inhibition of growth at 10 µM (NCI-H226) of under 10%, an inhibition of growth at 10 µM (NCI-H23) of under 10% and an inhibition of growth at 10 µM (NCI-H322M) of under 10%. For the same molecule, the inhibition of growth at 10 µM (NCI-H460) was under 10%, the inhibition of growth at 10 µM (NCI-H522) was 47.8% and the inhibition of growth at 10 µM (SW-620) was 13.4%. It also gave an inhibition of growth at 10 µM (COLO 205) of under 10%, an inhibition of growth at 10 µM (HCC 2998) of under 10% and an inhibition of growth at 10 µM (HCT-116) of 44.4%. For the same molecule, the inhibition of growth at 10 µM (HCT-15) was 35%, the inhibition of growth at 10 µM (HT-29) was 13% and the inhibition of growth at 10 µM (KM12) was 22.7%. For the same molecule, the inhibition of growth at 10 µM (SF-268) was under 10%, the inhibition of growth at 10 µM (SF-295) was under 10% and the inhibition of growth at 10 µM (SF-539) was under 10%. For the same molecule, the inhibition of growth at 10 µM (SNB-19) was under 10%, the inhibition of growth at 10 µM (SNB-75) was 18.4% and the inhibition of growth at 10 µM (U-251) was under 10%. It also gave an inhibition of growth at 10 µM (Malme-3M) of under 10%, an inhibition of growth at 10 µM (M14) of under 10% and an inhibition of growth at 10 µM (MDA-MB-435) of under 10%. For the same molecule, the inhibition of growth at 10 µM (SK-MEL-2) was under 10%, the inhibition of growth at 10 µM (SK-MEL-28) was under 10% and the inhibition of growth at 10 µM (SK-MEL-5) was 12%. The inhibition of growth at 10 µM (UACC-257) was 17.2%, the inhibition of growth at 10 µM (UACC-62) was 18% and the inhibition of growth at 10 µM (IGROV-1) was under 10%. For the same molecule, the inhibition of growth at 10 µM (OVCAR-4) was 12.5%, the inhibition of growth at 10 µM (OVCAR-5) was under 10% and the inhibition of growth at 10 µM (OVCAR-8) was 32%. The inhibition of growth at 10 µM (NCI/ADR-RES) was under 10%, the inhibition of growth at 10 µM (SK-OV-3) was under 10% and the inhibition of growth at 10 µM (786-0) was under 10%. It also gave an inhibition of growth at 10 µM (A498) of under 10%, an inhibition of growth at 10 µM (ACHN) of under 10% and an inhibition of growth at 10 µM (CAKI-1) of under 10%. The inhibition of growth at 10 µM (RXF 393) was under 10%, the inhibition of growth at 10 µM (SN12C) was under 10% and the inhibition of growth at 10 µM (TK-10) was under 10%. For the same molecule, the inhibition of growth at 10 µM (UO-31) was 13.7%, the inhibition of growth at 10 µM (PC-3) was 21.1% and the inhibition of growth at 10 µM (DU-145) was under 10%. The inhibition of growth at 10 µM (MCF7) was 28.9%, the inhibition of growth at 10 µM (MDA-MB-231) was 14.5% and the inhibition of growth at 10 µM (Hs-578T) was under 10%. The inhibition of growth at 10 µM (BT-549) was under 10% and the IC50 (DNA) was 43.92 µg/mL (≈ 77.2 µM).
